Reference: US11254700B2, “GSK-3β inhibitors and use thereof in methods of treatment” (UNIVERSITY OF HAWAII, priority 2017, dated 2022)

Tested on: APP/PS1 transgenic mice
Assay: Morris water maze test
Assay type: in vivo, mouse
Experimental: The backgrounds of all mice (APP/PS1 dual transgenic mice and wild-type mice with littermates) were C57/B6. Transgenic mice were randomly divided into three groups (n=20 for each group), and wild-type mice were used as controls (n=20). […] Throughout the study-period, animals were housed in a controlled environment (temperature, 22° C.; humidity, 50-60%, 12-hour light/12-hour dark schedules), with free access to rodent chow and water. After a Morris water maze test, mice were perfused with cold phosphate-buffered saline (PBS), brain tissues were dissected and kept frozen at −80° C. until further analysis. […] Isoorientin was dissolved in sterilized, ultrapure water, sonicated for 20 minutes at a concentration of 5 mg/ml and 2.5 mg/ml, and stored at 4° C. Isoorientin was administered by oral gavage. The required amount of solution was returned to room temperature before intragastric administration. […] The maze was composed of a circular pool (120 cm in diameter) filled with water (22±2° C.) to a height of 30 cm. […] Mice were given day of adaptive training followed by trials on six consecutive days. Each trial started by gently placing the mouse into the water with its head toward the pool wall of any of the three quadrants without the platform. If an animal found the platform within 60 seconds, it was left on the platform for 20 seconds. […] On the last day of Morris water maze test, the platform was removed and the number of times that the mice crossed the location of the original platform was quantified. Between trials, all mice were placed back in their home cages using a spoon-net to avoid direct contact with the experimenter. All trials were tracked automatically by a digital tracking system (Feidi Biological Technology) assessing path length, swimming speed, and latency to escape from the water.

O=c1cc(-c2ccc(O)c(O)c2)oc2cc(O)c([C@@H]3O[C@H](CO)[C@@H](O)[C@H](O)[C@H]3O)c(O)c12 [Compound 1, isoorientin]
platform cross frequencies (all doses, vs untreated APP/PS1): significantly increased
escape latency (intragastric, 60 days, all doses, vs untreated APP/PS1): significantly reduced the escape latency
cognitive deficit (oral, 25-mg/kg): significant alleviation of cognitive deficit
